Laboratory results taken from patent publication US10508086B2 (CANCER RESEARCH TECHNOLOGY LIMITED, priority 2014, dated 2019).
pEC50, pIC50: −log10 of the molar value.

Tests used:
Human Full Length PARG = Human Full Length PARG (Homo sapiens (Human), UniProt Q86W56); test: PARG in vitro enzyme assay (TR-FRET); assay type: biochemical; details: read-out: PARG_EC50_ENZYME
In short: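 Full-length human PARG ([…]) incubated with ribosylated PARP substrate (4.5 nM) for 10 min at room temperature in Tris pH 7.4 buffer with EDTA, EGTA, DTT, KCl. Detection by TR-FRET using anti-6HIS XL665 (14 nM final) and streptavidin europium cryptate (0.75 nM final) after 60 min; Em665/Em620 ratio converted to percent inhibition.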

PARG in HeLa cell line = PARG in HeLa cell line (Homo sapiens (Human), UniProt Q86W56); test: PARG cell assay (nuclear PAR chains after MMS, immunofluorescence); assay type: cell-based; details: HeLa cells, MMS 50 μg/mL; read-out: PARG Cell IC50 Geomean
Sequence of PARG in HeLa cell line (Q86W56 whole entry): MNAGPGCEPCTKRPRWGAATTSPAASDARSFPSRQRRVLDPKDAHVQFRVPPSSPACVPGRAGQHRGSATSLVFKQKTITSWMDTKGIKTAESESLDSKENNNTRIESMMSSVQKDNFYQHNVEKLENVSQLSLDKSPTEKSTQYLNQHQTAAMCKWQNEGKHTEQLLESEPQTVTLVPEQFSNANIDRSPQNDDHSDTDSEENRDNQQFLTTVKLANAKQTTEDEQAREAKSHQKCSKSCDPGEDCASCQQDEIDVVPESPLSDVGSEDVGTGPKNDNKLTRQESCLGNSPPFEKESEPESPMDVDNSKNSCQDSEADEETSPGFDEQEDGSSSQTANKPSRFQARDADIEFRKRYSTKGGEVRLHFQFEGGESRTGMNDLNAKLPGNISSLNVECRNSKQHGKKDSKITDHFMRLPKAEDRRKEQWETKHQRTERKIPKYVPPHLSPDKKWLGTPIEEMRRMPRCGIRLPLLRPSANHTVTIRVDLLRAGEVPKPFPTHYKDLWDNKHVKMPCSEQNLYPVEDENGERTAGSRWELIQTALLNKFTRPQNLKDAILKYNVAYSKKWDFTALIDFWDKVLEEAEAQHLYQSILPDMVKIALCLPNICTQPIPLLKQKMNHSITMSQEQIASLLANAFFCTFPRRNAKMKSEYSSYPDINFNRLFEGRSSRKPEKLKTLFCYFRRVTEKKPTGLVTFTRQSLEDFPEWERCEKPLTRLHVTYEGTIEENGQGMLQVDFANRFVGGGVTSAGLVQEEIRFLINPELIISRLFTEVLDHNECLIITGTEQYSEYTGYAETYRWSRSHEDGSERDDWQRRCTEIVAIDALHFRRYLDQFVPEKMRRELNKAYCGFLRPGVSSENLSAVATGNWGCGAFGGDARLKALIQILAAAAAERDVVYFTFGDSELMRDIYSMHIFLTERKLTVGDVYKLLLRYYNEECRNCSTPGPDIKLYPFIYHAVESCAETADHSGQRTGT
Experimental: This method is based on the detection of endogenous levels of poly (ADP) ribose chains present in the nucleus of HeLa cell line using indirect immunofluorescence. MMS stimulation increases PAR chains for up to 25 mins. After that point, PARG is active and breaks down the PAR chains, until by one hour after stimulation no PAR chains are detectable. Inhibition of PARG maintains PAR chains.
Briefly, following compound treatment and treatment with the DNA damaging agent methylmethanesulfonate (MMS), the cell monolayer is fixed, then permeabilised and incubated with a mouse monoclonal antibody raised against multimers of poly(ADP) ribose. After an overnight incubation, excess antibody is removed by washing and an Alexafluor 488-linked secondary antibody which recognises the mouse monoclonal is added together with a nuclear stain (Hoechst 33342). Images of the cells are then captured and analysed on a High Content Screening platform and the total intensity of the nuclear fluorescent signal at […] is quantified.
HeLa cells, seeded in 384-well plates, at 4000/well in 30 μL RPMI 1640 media, supplemented with 10% FBS and 2 mM Glutamax, were incubated overnight at 37° C., 5% CO2.
The following day, cells were dosed in quadruplicate with compound (10 point dose response) and incubated for 1 h at 37° C., 5% CO2.
At the end of the 1 h dosing period, MMS was added to duplicates at a final concentration of 50 μg/mL, for a further hour.
Media was tipped off and the cells fixed with 50 μL ice-cold 95% MetOH/PBS for 15 mins at −20° C. Following a PBS wash, 50 μL PBS/0.1% Triton was added to the cells for 20 mins. Following another PBS wash, anti-PAR antibody (Calbiochem AM80) was diluted 1:4000 in a buffer (PBS+0.5% FBS+0.05% Tween20) and added to the cells and incubated overnight at 4° C.
The following day, cells were washed three times with PBS and then incubated for 1 hr with secondary antibody (Alexa Fluor® 488 goat anti mouse IgG (H+L)) diluted 1:1000 and Hoechst diluted 1:5000 in buffer (5% FBS in PBS+0.05% Tween20).
Cells were washed three times with PBS and the plate sealed with a light-proof seal.
Images of the cells were captured on a ThermoFisher Celllnsight and the mean total intensity of spots fluorescent at 485 nm in the nucleus was reported.

Sequence of Human Full Length PARG (Q86W56 whole entry): as above

| SMILES | pEC50 (Human Full Length PARG) | pIC50 (PARG in HeLa cell line) |
| --- | --- | --- |
| Cc1cc(Cn2c(=O)n(-c3nnc(C(F)F)s3)c3cc(S(=O)(=O)NC4(C#N)CC4)ccc32)n(C)n1 [Example 165, N-(1-Cyanocyclopropyl)-3-[5-(difluoromethyl)-1,3,4-thiadiazol-2-yl]-1-[(2,5-dimethylpyrazol-3-yl)methyl]-2-oxo-benzimidazole-5-sulfonamide] | 6.63 | 6.90 |
| Cc1nnc(-n2c(=O)n(CC#N)c3ccc(S(=O)(=O)NC4(C)CC4)cc32)s1 [Example 166, 1-(Cyanomethyl)-N-(1-methylcyclopropyl)-3-(5-methyl-1,3,4-thiadiazol-2-yl)-2-oxo-benzimidazole-5-sulfonamide] | 6.11 | 6.54 |
| COCCn1c(=O)n(-c2nnc(C(F)F)s2)c2cc(S(=O)(=O)NC3(CF)CC3)c(F)cc21 [Example 167, 3-[5-(Difluoromethyl)-1,3,4-thiadiazol-2-yl]-6-fluoro-N-[1-(fluoromethyl)cyclopropyl]-1-(2-methoxyethyl)-2-oxo-benzimidazole-5-sulfonamide] | 7.13 | 7.34 |
| COCCn1c(=O)n(-c2nnc(C(F)F)s2)c2cc(S(=O)(=O)NC3(C)CC3)c(F)cc21 [Example 168, 3-[5-(Difluoromethyl)-1,3,4-thiadiazol-2-yl]-6-fluoro-1-(2-methoxyethyl)-N-(1-methylcyclopropyl)-2-oxo-benzimidazole-5-sulfonamide] | 7.00 | 7.49 |
| COCCn1c(=O)n(-c2nnc(C(F)F)s2)c2cc(S(=O)(=O)NC3(C)CC3)ccc21 [Example 169, 3-[5-(Difluoromethyl)-1,3,4-thiadiazol-2-yl]-1-(2-methoxyethyl)-N-(1-methylcyclopropyl)-2-oxo-benzimidazole-5-sulfonamide] | 6.45 | 7.44 |
| CN(C)CCCn1c(=O)n(-c2nnc(C(F)F)s2)c2cc(S(=O)(=O)NC3(CF)CC3)ccc21 [Example 170, 3-[5-(Difluoromethyl)-1,3,4-thiadiazol-2-yl]-1-[3-(dimethylamino)propyl]-N-[1-(fluoromethyl)cyclopropyl]-2-oxo-benzimidazole-5-sulfonamide] | 7.04 | 7.05 |
| Cc1nsc(-n2c(=O)n(C)c3cc(F)c(S(=O)(=O)NC4(C)CC4)cc32)n1 [Example 171, 6-Fluoro-1-methyl-N-(1-methylcyclopropyl)-3-(3-methyl-1,2,4-thiadiazol-5-yl)-2-oxo-benzimidazole-5-sulfonamide] | 5.15 | 5.81 |
| Cc1nsc(-n2c(=O)n(C)c3cc(F)c(S(=O)(=O)NC4(CF)CC4)cc32)n1 [Example 172, 6-Fluoro-N-[1-(fluoromethyl)cyclopropyl]-1-methyl-3-(3-methyl-1,2,4-thiadiazol-5-yl)-2-oxo-benzimidazole-5-sulfonamide] | 4.92 | 5.68 |
| Cn1c(=O)n(-c2nnc(C(F)F)s2)c2cc(S(=O)(=O)NC3(C)CC3)c(F)cc21 [Example 173, 3-[5-(Difluoromethyl)-1,3,4-thiadiazol-2-yl]-6-fluoro-1-methyl-N-(1-methylcyclopropyl)-2-oxo-benzimidazole-5-sulfonamide] | 6.85 | 7.19 |
| Cn1c(=O)n(-c2ncns2)c2cc(S(=O)(=O)NC3(CF)CC3)ccc21 [Example 175, N-[1-(Fluoromethyl)cyclopropyl]-1-methyl-2-oxo-3-(1,2,4-thiadiazol-5-yl)benzimidazole-5-sulfonamide] | 6.60 | 6.26 |
| Cc1nsc(-n2c(=O)n(C)c3ccc(S(=O)(=O)NC4(C)CC4)cc32)n1 [Example 176, 1-Methyl-N-(1-methylcyclopropyl)-3-(3-methyl-1,2,4-thiadiazol-5-yl)-2-oxo-benzimidazole-5-sulfonamide] | 5.22 | 5.75 |
| Cc1nnc(-n2c(=O)n(CC#N)c3ccc(S(=O)(=O)NC4(CF)CC4)cc32)s1 [Example 178, 1-(Cyanomethyl)-N-[1-(fluoromethyl)cyclopropyl]-3-(5-methyl-1,3,4-thiadiazol-2-yl)-2-oxo-benzimidazole-5-sulfonamide] | 6.17 | 6.04 |
| Cc1nsc(-n2c(=O)n(CC#N)c3ccc(S(=O)(=O)NC4(C)CC4)cc32)n1 [Example 179, 1-(Cyanomethyl)-N-(1-methylcyclopropyl)-3-(3-methyl-1,2,4-thiadiazol-5-yl)-2-oxo-benzimidazole-5-sulfonamide] | 5.94 | 5.93 |
| Cc1nsc(-n2c(=O)n(CC#N)c3ccc(S(=O)(=O)NC4(CF)CC4)cc32)n1 [Example 180, 1-(Cyanomethyl)-N-[1-(fluoromethyl)cyclopropyl]-3-(3-methyl-1,2,4-thiadiazol-5-yl)-2-oxo-benzimidazole-5-sulfonamide] | 5.95 | 5.71 |
| Cn1c(=O)n(-c2nnc(C(F)F)s2)c2cc(S(=O)(=O)NC3(CF)CC3)ccc21 [Example 181, 3-[5-(Difluoromethyl)-1,3,4-thiadiazol-2-yl]-N-[1-(fluoromethyl)cyclopropyl]-1-methyl-2-oxo-benzimidazole-5-sulfonamide] | 6.54 | 6.96 |
| COCCn1c(=O)n(-c2nc(C)ns2)c2cc(S(=O)(=O)NC3(C)CC3)ccc21 [Example 182, 1-(2-Methoxyethyl)-N-(1-methylcyclopropyl)-3-(3-methyl-1,2,4-thiadiazol-5-yl)-2-oxo-benzimidazole-5-sulfonamide] | 6.51 | 6.27 |
| COCCn1c(=O)n(-c2ncns2)c2cc(S(=O)(=O)NC3(CF)CC3)ccc21 [Example 183, N-[1-(Fluoromethyl)cyclopropyl]-1-(2-methoxyethyl)-2-oxo-3-(1,2,4-thiadiazol-5-yl)benzimidazole-5-sulfonamide] | 6.26 | 6.42 |
| COCCn1c(=O)n(-c2nc(C)ns2)c2cc(S(=O)(=O)NC3(CF)CC3)ccc21 [Example 184, N-[1-(Fluoromethyl)cyclopropyl]-1-(2-methoxyethyl)-3-(3-methyl-1,2,4-thiadiazol-5-yl)-2-oxo-benzimidazole-5-sulfonamide] | 5.86 | 6.15 |
| COCCCn1c(=O)n(-c2nc(C)ns2)c2cc(S(=O)(=O)NC3(CF)CC3)ccc21 [Example 185, N-[1-(Fluoromethyl)cyclopropyl]-1-(3-methoxypropyl)-3-(3-methyl-1,2,4-thiadiazol-5-yl)-2-oxo-benzimidazole-5-sulfonamide] | 5.42 | 6.13 |
| Cc1nsc(-n2c(=O)n(CCN(C)C)c3ccc(S(=O)(=O)NC4(CF)CC4)cc32)n1 [Example 186, 1-[2-(Dimethylamino)ethyl]-N-[1-(fluoromethyl)cyclopropyl]-3-(3-methyl-1,2,4-thiadiazol-5-yl)-2-oxo-benzimidazole-5-sulfonamide] | 5.37 | 5.51 |
| COCCCn1c(=O)n(-c2nnc(C)s2)c2cc(S(=O)(=O)NC3(CF)CC3)ccc21 [Example 187, N-[1-(Fluoromethyl)cyclopropyl]-1-(3-methoxypropyl)-3-(5-methyl-1,3,4-thiadiazol-2-yl)-2-oxo-benzimidazole-5-sulfonamide] | 6.37 | 6.70 |
| Cc1nnc(-n2c(=O)n(CCN(C)C)c3ccc(S(=O)(=O)NC4(CF)CC4)cc32)s1 [Example 188, 1-[2-(Dimethylamino)ethyl]-N-[1-(fluoromethyl)cyclopropyl]-3-(5-methyl-1,3,4-thiadiazol-2-yl)-2-oxo-benzimidazole-5-sulfonamide] | 6.21 | 6.46 |
| Cc1nnc(-n2c(=O)n(C)c3ccc(S(=O)(=O)NC4(C)CC4)cc32)o1 [Example 189, 1-Methyl-N-(1-methylcyclopropyl)-3-(5-methyl-1,3,4-oxadiazol-2-yl)-2-oxo-benzimidazole-5-sulfonamide] | 5.75 | 5.91 |
| CCn1c(=O)n(-c2nnc(C)o2)c2cc(S(=O)(=O)NC3(C)CC3)ccc21 [Example 190, 1-Ethyl-N-(1-methylcyclopropyl)-3-(5-methyl-1,3,4-oxadiazol-2-yl)-2-oxo-benzimidazole-5-sulfonamide] | 6.03 | 6.39 |
| Cc1nnc(-n2c(=O)n(CCF)c3ccc(S(=O)(=O)NC4(C)CC4)cc32)o1 [Example 191, 1-(2-Fluoroethyl)-N-(1-methylcyclopropyl)-3-(5-methyl-1,3,4-oxadiazol-2-yl)-2-oxo-benzimidazole-5-sulfonamide] | 6.01 | 6.09 |
